According to patent publication US6713603B2, “Chiral peptide nucleic acids” (Isis Innovation Limited, priority 1996, dated 2004):
[cPNA-N] = chiral peptide nucleic acid unit: glycyl-D-proline with cis-4-nucleobase (N: the base); {LysNH2} = C-terminal L-lysinamide cap

Legend:
poly(dA) = assay: Melting curves (Tm) of 1:1 hybrids of cPNAs with poly(dA); assay type: binding; details: for Tm with poly (dA): 1:1 hybrid, 260 nm; for Tm with poly (dA) / % hypochromicity with poly (dA): 150 mM sodium chloride, 10 mM sodium phosphate pH 7.0; for % hypochromicity with poly (dA): from melting curves at 260 nm
Description: (§1) The deca-thymine glycyl-proline peptide nucleic acids with cis-L, trans-D and cis-D stereochemistry, and C-terminal L-lysinamide were mixed in 1:1 ratio with poly(rA) and poly(dA) in the presence of 150 mM NaCl and sodium phosphate buffer (10 mM Na^+, pH 7.0) and the Tm determined (FIG. 3). […] The magnitudes of absorbance change were of the order of 30-40%.
FIG. 3. The melting curves of the 1:1 hybrids of (a) H-[Gly-L-Pro(cis-4-T)]10-Lys-NH2, (b) H-[Gly-D-Pro(cis-4-T)]10-Lys-NH2, (c) H-[Gly-D-Pro(trans-4-T)]10-Lys-NH2 with poly(dA) at 150 mM NaCl, 10 mM sodium phosphate, pH 7.0 and (d) poly(dA) alone. The poly(dA) concentration was 10.8 μM dA nucleotide. The melting curves were recorded at 260 nm and the rate of heating was 0.5° C./min.
(§2) All the Tm measurements were carried out on a Varian CARY 13 UV spectrophotometer equipped with a temperature control system. The machine was controlled by a CARY 13 software running on an IBM PS/2 system model 30/286. The sample for Tm measurement was prepared by mixing calculated amounts of stock oligonucleotide and nucleopeptide solutions together and the calculated amounts of NaCl and sodium phosphate buffer (pH 7.0) were then added as stock solutions and the final volumes were adjusted to 3.0 ml by addition of water. The samples were transferred to a 10 mm quartz cell with teflon stopper and equilibrated at the starting temperature for at least 30 min. The OD260 was recorded in steps from 5-95° C. (heater temperature) with a temperature increment of 0.25-0.5° C./min, The results were normalised by dividing the absorbance at each temperature by the initial absorbance. Analysis of the data was performed on a KaleidaGraph software 2.1.3 (Abelbeck Software) running on a Macintosh LC III computer. The OD260 was normalised by dividing with the initial OD260. The melting temperatures were determined from the maxima of the first derivative plots of the normalised OD260 against temperature. Percent hyperchromicity was calculated from the ratio of the OD260 at the end of experiment to the initial OD260.

Solubility in water = assay type: physicochemical
poly(rA) = assay: Melting curves (Tm) of 1:1 hybrids of cPNAs with poly(rA); assay type: binding; details: 150 mM sodium chloride, 10 mM sodium phosphate pH 7.0; for Tm with poly (rA): 1:1 hybrid, 260 nm; for % hypochromicity with poly (rA): from melting curves at 260 nm
Description: as §1, §2

dA10 [1] = assay: Melting curves (Tm) of hybrids of cPNAs with dA10; assay type: binding; details: 260 nm; for Tm with dA10: 150 mM sodium chloride, 10 mM sodium phosphate pH 7.0
Description: Although both cis-D and cis-L analogues gave melting curves with poly(dA) and poly(rA), only the cis-D analogue gave a well-defined melting curve with (dA)10, with Tm=61° C., under the same conditions.
(§3) Further investigation of the nature of the cis-D peptide nucleic acid-oligonucleotide interaction was undertaken by determining the melting curve with (dT)10.
as §2

Sequence ID No. 2 = assay: Tm of mixed-base cPNA hybridised with complementary oligonucleotide Sequence ID No. 2; assay type: binding
Description: (§4) All four bases found in DNA were introduced into the glycyiproline building units with the cis-D configuration and from these mixed cPNAs containing all four nucleobases have been made. The sequence GTAGATCACT, capped at its C-terminus with L-lysinamide was synthesized, and its binding properties with oligonucleotides investigated. Since it is important to determine the preferred orientation of binding of these novel CPNAs to oligonucleotides, both of the possible complementary oligonucleotides were prepared, i.e. Sequence ID No. 2, and Sequence ID No. 3, and hybridised with the chiral PNA.
(§5) All the Tm measurements were carried out on a Varian CARY 13 UV spectrophotometer equipped with a temperature control system. […] The sample for Tm measurement was prepared by mixing calculated amounts of stock oligonucleotide and nucleopeptide solutions together and the calculated amounts of NaCl and sodium phosphate buffer (pH 7.0) were then added as stock solutions and the final volumes were adjusted to 3.0 ml by addition of water. […] The OD260 was recorded in steps from 5-95° C. (heater temperature) with a temperature increment of 0.25-0.5° C./min, The results were normalised by dividing the absorbance at each temperature by the initial absorbance. […] The melting temperatures were determined from the maxima of the first derivative plots of the normalised OD260 against temperature. […]

[2] = system: complementary oligonucleotides; assay: 1H NMR experiment: mixing cPNA with complementary oligonucleotides (solubility of complex); assay type: physicochemical; details: mmolar concentration
Description: Following the promising results obtained on the binding is studies of the cPNA with complementary oligonucleotides by Tm measurement, a ^1H NMR experiment was performed on the mixed sequence decamer, H-Gly-D-Pro(cis-4-G)-Gly-D-Pro(cis-4-T)-Gly-D-Pro(cis-4-A)-Gly-D-Pro(cis-4-G)-Gly-D-Pro(cis-4-A)-Gly-D-Pro(cis-4-T)-Gly-D-Pro(cis-4-C)-Gly-D-Pro(cis-4-A)-Gly-D-Pro(cis-4-C)-Gly-D-Pro(cis-4-T)-LysNH2, and its complementary oligonucleotides, both in parallel and antiparallel fashion. […] In an attempt to overcome this problem it was decided to synthesise a cPNA analogue, containing a hydrophilic spacer amino acid—namely serine—in place of the glycine spacer in the backbone while retaining the cis-D-configuration of the proline moiety. […] Thus the target molecules were diastereomeric thymine-decamers H-[L-Ser-D-Pro(cis-4-T)]10LysNH2 (“LD-ST10”) and H-[D-Ser-D-Pro(cis-4-T)]10LysNH2 (“DD-ST10”).

Sequence ID No. 3 = assay: Tm of mixed-base cPNA hybridised with complementary oligonucleotide Sequence ID No. 3; assay type: binding
Description: as §4, §5

(dT)10 = assay: Melting curve of 1:1 mixture with (dT)10; assay type: binding
Description: as §3
as §2, with “Analysis of the data was performed on a KaleidaGraph software 2.1.3 (Abelbeck Software) running on a Macintosh LC III computer. The OD260 was normalised by dividing with the initial OD260.” left out

dA10 [3] = assay: 1H NMR experiment: mixing DD-ST10 with dA10 (solubility of complex); assay type: physicochemical; details: 0.5 mM DD-ST10 in 10% D2O-H2O
Description: A ^1H NMR study of a mixture of DD-ST10 and dA10 was attempted.
^1H NMR study of a mixture of DD-ST10 and dA10 was performed on a Bruker AMX 500 spectrometer (500 MHz). The ^1H NMR spectra of DD-ST10 and dA10 were recorded separately (at a concentration of 0.53 mM for the DD-ST10 and 0.67 mM for the dA10 in 10% D2O in H2O).

Compound: H-[Gly-D-Pro(trans-4-T)]10-Lys-NH2 [H-[Gly-D-Pro(trans-4-T)]10-LysNH2]
- Tm with poly (dA) (poly(dA)): No melting
- solubility in water compared with the other T10 cPNAs (Solubility in water): considerably more soluble than the other two
- Tm with poly (rA) (poly(rA)): No melting
- Tm with dA10 (dA10 [1]): No melting

Compound: Cc1cn([C@H]2C[C@@H](C(=O)Oc3c(F)c(F)c(F)c(F)c3F)N(C(=O)CNC(=O)OCC3c4ccccc4-c4ccccc43)C2)c(=O)[nH]c1=O [6a, N-(N-Fluoren-9-ylmethoxycarbonylglycyl)-cis-4-(thymin-1-yl)-L-proline pentafluorophenyl ester]
- melting point: 124 to 126 °C

Compound: O=C(NCC(=O)N1C[C@H](n2cnc3c(NC(=O)c4ccccc4)ncnc32)C[C@@H]1C(=O)Oc1c(F)c(F)c(F)c(F)c1F)OCC1c2ccccc2-c2ccccc21 [compound 10, N-(N-Fluoren-9-ylmethoxycarbonylglycyl)-cis-4-(N6-benzoyladenin-9-yl)-D-proline pentafluorophenyl ester]
- melting point: 125 to 130 °C

Compound: H-Gly-D-Pro(cis-4-G)-Gly-D-Pro(cis-4-T)-Gly-D-Pro(cis-4-A)-Gly-D-Pro(cis-4-G)-Gly-D-Pro(cis-4-A)-Gly-D-Pro(cis-4-T)-Gly-D-Pro(cis-4-C)-Gly-D-Pro(cis-4-A)-Gly-D-Pro(cis-4-C)-Gly-D-Pro(cis-4-T)-Lys-NH2 (GTAGATCACT; all [cPNA-N], 3' {LysNH2}, methylation of C not given here; glycyl-D-proline chiral PNA backbone, free N-terminus)
- solubility in water of the cPNA alone (Solubility in water): freely soluble
- Tm with complementary oligonucleotide Sequence ID No. 2 (Sequence ID No. 2): 47 °C
- behaviour on mixing with complementary oligonucleotides (parallel and antiparallel) [2]: a white precipitate formed immediately
- Tm with complementary oligonucleotide Sequence ID No. 3 (Sequence ID No. 3): 43 °C

Compound: CC(C)C(=O)Nc1nc2c(ncn2[C@@H]2C[C@H](C(=O)Oc3c(F)c(F)c(F)c(F)c3F)N(C(=O)CNC(=O)OCC3c4ccccc4-c4ccccc43)C2)c(=O)[nH]1 [compound 16, N-(N-Fluoren-9-ylmethoxycarbonylglycyl)-cis-4-(N2-isobutyrylguanin-9-yl)-D-proline pentafluorophenyl ester]
- melting point: 146 to 150 °C

Compound: H-[Gly-D-Pro(cis-4-T)]10-Lys-NH2 [H-[Gly-D-Pro(cis-4-T)]10-LysNH2]
- Tm with poly (dA) (poly(dA)): 70 °C
- binding with poly(dA), comparison of the 10 mers (poly(dA); 10 mers derived from (6a), (6b) and (6c)): binds most strongly
- % hypochromicity with poly (dA) (poly(dA)): 28%
- Tm with poly (rA) (poly(rA)): 72 °C
- % hypochromicity with poly (rA) (poly(rA)): 45%
- Tm with dA10 (dA10 [1]): 61 °C
- hyperchromicity of 1:1 mixture with (dA)10 (dA10 [1]; on heating): ca. 20%
- increase in absorbance at 260 nm on heating, 1:1 mixture with (dT)10 ((dT)10): no significant increase

Compound: O=C(NCC(=O)N1C[C@H](n2ccc(NC(=O)c3ccccc3)nc2=O)C[C@@H]1C(=O)Oc1c(F)c(F)c(F)c(F)c1F)OCC1c2ccccc2-c2ccccc21 [compound 13, N-(N-Fluoren-9-ylmethoxycarbonylglycyl)-cis-4-(N4-benzoylcytosin-1-yl)-D-proline pentafluorophenyl ester]
- melting point: 133 to 137 °C

Compound: Cc1cn([C@H]2C[C@H](C(=O)Oc3c(F)c(F)c(F)c(F)c3F)N(C(=O)CNC(=O)OCC3c4ccccc4-c4ccccc43)C2)c(=O)[nH]c1=O [6b, N-(N-Fluoren-9-ylmethoxycarbonylglycyl)-trans-4-(thymin-1-yl)-D-proline pentafluorophenyl ester]
- melting point: 115 to 124 °C

Compound: H-[Gly-L-Pro(cis-4T)]10-Lys-NH2 [H-[Gly-L-Pro(cis-4-T)]10-LysNH2]
- Tm with poly (dA) (poly(dA)): 69 °C
- % hypochromicity with poly (dA) (poly(dA)): 40%
- Tm with poly (rA) (poly(rA)): 73 °C
- % hypochromicity with poly (rA) (poly(rA)): 36%
- Tm with dA10 (dA10 [1]): 42 °C
- Tm with dA10 (dA10 [1]; listed as cis-L analogue): near room temperature

Compound: Cc1cn([C@H]2C[C@H](C(=O)O)N(C(=O)CNC(=O)OCC3c4ccccc4-c4ccccc43)C2)c(=O)[nH]c1=O [5b, N-(N-Fluoren-9-ylmethoxycarbonylglycyl)-trans-4-(thymin-1-yl)-D-proline]
- melting point: > 200 °C

Compound: H-[D-Ser-D-Pro(cis-4-T)]10LysNH2 [DD-ST10]
- behaviour on addition of 20 mol % of dA10 (dA10 [3]): an immediate precipitation occurred

Compound: Cc1cn([C@@H]2C[C@H](C(=O)O)N(C(=O)CNC(=O)OCC3c4ccccc4-c4ccccc43)C2)c(=O)[nH]c1=O [5c, N-(N-Fluoren-9-ylmethoxycarbonylglycyl)-cis-4-(thymin-1-yl)-D-proline]
- melting point: > 200 °C

Compound: Cc1cn([C@H]2C[C@@H](C(=O)O)N(C(=O)CNC(=O)OCC3c4ccccc4-c4ccccc43)C2)c(=O)[nH]c1=O [5a, N-(N-Fluoren-9-ylmethoxycarbonylglycyl)-cis-4-(thymin-1-yl)-L-proline]
- melting point: > 200 °C

Compound: Cc1cn([C@@H]2C[C@H](C(=O)Oc3c(F)c(F)c(F)c(F)c3F)N(C(=O)CNC(=O)OCC3c4ccccc4-c4ccccc43)C2)c(=O)[nH]c1=O [6c, N-(N-Fluoren-9-ylmethoxycarbonylglycyl)-cis-4-(thymin-1-yl)-D-proline pentafluorophenyl ester]
- melting point: 122 to 126 °C
